# Assay results from patent US20110082091A1, “Method for Preclinical Testing of Immunomodulatory Drugs” (TheraMAB GmbH, priority 2009, published 2011).
# Entries after “also recorded” stand apart in the source; their conditions may differ.
# Assays:
# patients = patients receiving mAb therapy; cited from earlier work
# human PBMCs [1] = assay: PBMC proliferation, 3H-thymidine incorporation; format: cell-based; conditions: 3H-thymidine on day 3, 16 hours
# Experimental: Fresh and precultured PBMCs were prepared and cultured as described for FIGS. 1 A and B, respectively. On day 3, 1 μCi of 3H-thymidine was added, and cultures were harvested 16 hours later and processed for liquid scintillation counting. Besides cytokine release, polyclonal T-cell activation results in proliferation which can be measured as radioactivity incorporated, here incorporated as tritiated thymidine. […] Thus, proliferation can also be used as a readout.
# human PBMCs [2] = assay: Cytokine release from precultured PBMCs restimulated at 10^6/ml, cytokine bead array; format: cell-based; conditions: high-density precultured PBMCs, mAb 1 μg/ml, OKT3 compared with TGN1412
# Experimental: For the experiment in FIG. 1B PBMCs from a healthy donor were cultured in 1.5 ml medium for 2 days at 10^7/ml in 24 well flat bottom tissue culture plates before being washed and readjusted to 10^6/ml. With these cells, the same experiment was performed as described in Example 1.
# For the experiment of FIG. 3 PBMCs were cultured at 10^6/ml (left bars) or at 10^7/ml (right bars) for 2 days before being stimulated by TGN1412 at 10^6/ml as described in FIG. 1.
# For the experiment of FIG. 4 fresh PBMCs (left bars of triplets), and PBMCs precultured at 10^7/ml for 24 (middle bars of triplets) or 48 hours (right bars of triplets) were stimulated with OKT3 or TGN1412 for 24 hours under the conditions given in FIG. 1.
# For the experiment of FIG. 5 PBMCs were cultured for two days at high density (10^7/ml, right bars of triplets) or at low density (10^6/ml, left and middle bars of triplets) in 1.5 ml cultures. In the group shown as middle bars of triplets, these low density cultures additionally contained an insert with a semipermeable membrane on which additional PBMCs were cultured at high-density (10^6/ml below membrane, 10^7/ml above membrane, middle bars of triplets).
# Cell density. […]
# High-density precultured PBMCs were prepared as in FIG. 1B and stimulated with 1 μg/ml of OKT3 or TGN1412. Supernatants were harvested at the times indicated and TNF content was analysed as in FIG. 1.
# human PBMCs [3] = assay: Cytokine release from freshly isolated PBMCs (standard culture), cytokine bead array; format: cell-based; conditions: fresh PBMCs, 10^6/ml, mAb 1 μg/ml, 24 hours
# Excerpt: For the induction of cytokine release, the present invention as well as this comparative example uses a system of PBMC stimulation as described below to study the response of human PBMCs to immune-modulating agents. This system employs freshly prepared PBMCs, isolated from heparinized venous blood by centrifugation over a density gradient (Lymphocyte Separation Medium LSM 1077, PAA Laboratories, Pasching, Germany) following the manufacturer's instructions. […]
# In this tissue culture system, freshly isolated PBMCs were stimulated with soluble TGN1412 provided by TheraMab GmbH, Wurzburg. […] After 24 hours, a panel of cytokines including the major pro- and anti-inflammatory factors detected in plasma of the volunteers of the TGN1412 trial (Suntharalingam et al., 2006) were analyzed by the cytokine-bead-array (CBA) technology (Becton Dickinson, Mountain View, Calif., USA) following the manufacturer's instructions. […]
# PBMCs from a healthy donor were isolated by Ficoll density centrifugation and cultured in 0.2 ml RPMI1640 medium supplemented with 10% AB serum for 24 hours at 10^6/ml in 96 well flat bottom tissue culture plates. Cytokines in the supernatants were analyzed after 24 hours of incubation by cytokine bead array. […]
# CD4 T-cells in PBMCs = assay: Intracellular TNF / IFN-gamma staining of CD4 T-cell subsets (flow cytometry, brefeldin A); format: cell-based, human; conditions: mAb 1 μg/ml, 18 hours, brefeldin A last 4 hours; CD45RO+ vs CD45RO- CD4 T-cells
# Experimental: 2 day high-density precultured PBMCs were stimulated for 18 hours with 1 μg/ml of OKT3 or of TGN1412. Instead of 18 hours stimulation for a period of time between 15 to 20 hours, preferably 16 to 18 hours, is generally possible. During the last 4 hours of culture, 5 μg/ml of brefeldin A was added to block cellular export of cytokines. After cell-surface staining with fluorochome-conjugated mAb to CD4 and CD45RO (memory marker), cells were fixed, permeabilized and stained with mAb to TNF—left panels—or IFNgamma—right panels—(all from BD Pharmingen, Mountain View, Calif., USA)
# 15.000 live-gated events were acquired on a BD Calibur flow cytometer and data were analyzed using FlowJo software (Three Star Inc., Ashland, Oreg., USA). The cytokine storm elicited by OKT3 in patients is a well-known phenomenon, and the accompanying information provided with this drug (Muromonomab, Janssen-CILAG) explicitly warns against this syndrome. […] In parallel, the cell surface phenotype of the stimulated PBMCs was determined. The main cytokine-producing T-cell subset, the CD4 T-cells, were thus identified and further subdivided into naive (CD45R0−) and memory (CD45RO+) subsets.
# PBMCs [4] = format: cell-based, human
# PBMCs [5] = format: cell-based, human; remark: listed apart in the source
substance,measurement,setting,value
"OKT3: CD3-specific mAb addressing the T-cell antigen receptor, clinical-grade, Janssen-Cilag",systemic cytokine release,patients,induce the systemic release of proinflammatory cytokines
same,proliferation,human PBMCs [1]; 2 day high-density precultured PBMCs,"stimulated the proliferation of both, fresh and precultured PBMCs"
same,proliferation,human PBMCs [1]; fresh PBMCs,"stimulated the proliferation of both, fresh and precultured PBMCs"
same,kinetics of TNF release,human PBMCs [2],follows the same kinetics
same,"cytokine release (TNF, IFN-gamma, IL-2, IL-10)",human PBMCs [3],"highly effective in inducing TNF, IFN-gamma, and IL-2; also recorded: ability"
same,cellular source of TNF and IFN-gamma production,CD4 T-cells in PBMCs,predominantly in the CD4 memory subset
Staphylococcal Enterotoxin B,proliferative response,PBMCs [4],strongly enhances the sensitivity of this assay
concanavalin A [ConA],proliferative T-cell response,PBMCs [5],strongly enhanced
phytohemagglutinin [PHA],proliferative T-cell response,PBMCs [5],strongly enhanced
